Values of other authors as cited in patent US20200230141A1, “BI-LAYER PHARMACEUTICAL TABLET FORMULATION” (ViiV Healthcare Company, priority 2017, published 2020).
Like-named read-outs stand apart in the source and are kept apart here.

Key:
[1] = not told
HIV-1 strains = details: broad range of HIV-1 strains
[2] = steady state, HIV-1-infected adults
[3] = typical / standard physiologic conditions

Structure (SMILES)	permeability [1]	potency (HIV-1 strains)	Cmax, geometric mean (% CV) ([2]; 50 mg once daily)	Cmin, geometric mean (% CV) ([2]; 50 mg once daily)	AUC(0-24), geometric mean (% CV) ([2]; 50 mg once daily, population PK (SPRING-1, SPRING-2))	Cmax, geometric mean (% CV) ([2]; 50 mg twice daily)	Cmin, geometric mean (% CV) ([2]; 50 mg twice daily)	AUC(0-24), geometric mean (% CV) ([2]; 50 mg twice daily, population PK (VIKING, VIKING-3))	solubility [3]
Nc1ccn([C@@H]2CS[C@H](CO)O2)c(=O)n1 (single isomer, unassigned) [lamivudine]	highly permeable								
C[C@@H]1CCO[C@H]2Cn3cc(C(=O)NCc4ccc(F)cc4F)c(=O)c(O)c3C(=O)N12 [Dolutegravir, (4R,12aS)—N-[(2,4-difluorophenyl)methyl]-7-hydroxy-4-methyl-6,8-dioxo-3,4,12,12a-tetrahydro-2H-pyrido[5,6]pyrazino[2,6-b][1,3]oxazine-9-carboxamide]		subnanomolar	3.67 (20) mcg/mL	1.11 (46) mcg/mL	53.6 (27) mcg · h/mL	4.15 (29) mcg/mL	2.12 (47) mcg/mL	75.1 (35) mcg · h/mL	slightly soluble
